Columns and labels:
[1] = biological target: T1, CYP11B1 (steroid 11 β-hydroxylase) (Homo sapiens, UniProt P15538); test: Cortisol cell secretion in NCI-H295R cells (in vitro inhibitory activity for CYP11B1); assay type: cell-based; details: NCI-H295R, compound at 1 μM
T1 construct: the NCI-H295R cells have CYP11B1 (steroid 11 β-hydroxylase); host or cells: NCI-H295R
T1 sequence (P15538 25-503): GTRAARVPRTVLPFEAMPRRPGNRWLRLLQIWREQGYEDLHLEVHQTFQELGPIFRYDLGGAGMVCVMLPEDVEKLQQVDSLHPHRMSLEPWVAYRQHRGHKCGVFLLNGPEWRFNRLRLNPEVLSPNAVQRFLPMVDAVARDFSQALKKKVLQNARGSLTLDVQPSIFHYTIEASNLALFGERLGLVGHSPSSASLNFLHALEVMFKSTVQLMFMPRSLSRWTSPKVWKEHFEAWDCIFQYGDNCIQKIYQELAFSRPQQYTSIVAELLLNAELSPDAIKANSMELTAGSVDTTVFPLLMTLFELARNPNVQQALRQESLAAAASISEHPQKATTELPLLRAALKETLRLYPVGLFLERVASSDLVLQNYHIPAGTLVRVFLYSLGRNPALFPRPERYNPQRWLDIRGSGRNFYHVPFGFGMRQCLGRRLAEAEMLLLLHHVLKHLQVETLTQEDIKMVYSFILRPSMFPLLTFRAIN
Text: The in vitro inhibitory activities for CYP11B1 can be determined by the following assay.
The cell line NCI-H295R was originally isolated from an adrenocortical carcinoma and has been characterized in the literature through the stimulable secretion of steroid hormones and the presence of the enzymes essential for steroidogenesis. Thus, the NCI-H295R cells have CYP11B1 (steroid 11 β-hydroxylase). The cells show the physiological property of zonally undifferentiated human fetal adrenocortical cells which, however, have the capacity to produce the steroid hormones which are formed in the three, phenotypically distinguishable zones in the adult adrenal cortex.
The NCI-H295R cells (American Type Culture Collection, ATCC, Rockville, Md., USA) are grown in Dulbeoco's Modified Eagle'Ham F-12 Medium (DME/F12), which has been supplemented with Ulroser SF Serum (Soprachem, Cergy-Saint-Christophe, France), insulin, transferrin, selenite (I-T-S, Becton Dickinson Biosiences, Franklin lakes, N.J., USA) and antibiotics in 75 cm^2 cell culture vessels at 37° C. and in a 95% air-5% carbon dioxide atmosphere. The cells are subsequently transferred for colony formation into a 24-well incubation vessel. They are cultivated there in DME/F12 medium, which is now supplemented with 0.1% bovine serum instead of Ultroser SF for 24 hours. The experiment is initiated by cultivating the cells in DME/F12 medium which is supplemented with 0.1% bovine serum albumin and test compound, in the presence or absence of cell stimulants, for 72 hours. The test substance is added in a concentration range from 0.2 nanomolar to […]. Cell stimulants which can be used are angiotensin II ([…] or 100 nanomolar), potassium ions (16 millimolar), forskolin (10 micromolar) or a combination of two stimulants.
The excretion of aldosterone, cortisol, corticosterone and estradiol/estrone into the culture medium can be detected and quantified by commercially available, specific monoclonal antibodies in radioimmunoassays in accordance with the manufacturer's instructions.
(§1) Inhibition of the release of certain steroids can be used as a measure of the respective enzyme inhibition by the added test compounds. The dose-dependent inhibition of enzymatic activity by a compound is calculated by means of an inhibition plot which is characterized by an IC50.
The inhibition activity of CYP11B1 production can also be expressed in percentage inhibition (% inhibition) at a given concentration (e.g. % inhibition at 1 μM), which is the cortisol level when cell is treated with the given concentration of a compound of the invention (e.g. concentration of 1 μM) versus the cortisol excretion when cell is free of the compound of the invention. % inhibition cortisol production=[(Y′−X′)/Y′]×100 wherein X′ is the level of cortisol when the cell is treated with a compound of Formula I; and Y′ is the level of cortisol when the cell is free of compound of Formula I.

[2] = biological target: T2, aldosterone synthase (Homo sapiens, UniProt P19099); test: Aldosterone cell secretion in Ang II-stimulated NCI-H295R cells (SPA with anti-aldosterone antibody); assay type: cell-based; details: human adrenocortical carcinoma NCI-H295R cells, 1 μM Ang II, 24 h
T2 construct: host or cells: NCI-H295R
T2 sequence (P19099 25-503): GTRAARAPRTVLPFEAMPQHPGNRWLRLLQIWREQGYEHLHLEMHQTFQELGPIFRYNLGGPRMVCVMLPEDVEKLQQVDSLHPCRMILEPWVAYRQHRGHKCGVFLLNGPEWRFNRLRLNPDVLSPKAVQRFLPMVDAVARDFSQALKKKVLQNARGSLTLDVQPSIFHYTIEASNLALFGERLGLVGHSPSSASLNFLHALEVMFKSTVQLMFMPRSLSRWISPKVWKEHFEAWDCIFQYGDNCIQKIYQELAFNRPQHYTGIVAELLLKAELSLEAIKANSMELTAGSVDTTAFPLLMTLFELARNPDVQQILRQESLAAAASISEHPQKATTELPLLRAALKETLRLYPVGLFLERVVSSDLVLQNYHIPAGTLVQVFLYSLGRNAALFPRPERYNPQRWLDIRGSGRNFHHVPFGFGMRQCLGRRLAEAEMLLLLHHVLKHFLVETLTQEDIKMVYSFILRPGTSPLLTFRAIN
Text: In particular, the aldosterone synthase inhibitory activities in vitro can be determined by the following assay.
Human adrenocortical carcinoma NCI-H295R cell line was obtained from American Type Culture Collection (Manassas, Va.). Insulin/transferrin/selenium (ITS)-A supplement (100×), DMEM/F-12, antibiotic/antimycotic (100×), and fetal bovine serum (FBS) were purchased from Invitrogen (Carlsbad, Calif.). Anti-mouse PVT scintillation proximity assay (SPA) beads and NBS 96-well plates were obtained from GE Health Sciences (Piscataway, N.J.) and Corning (Acton, Mass.), respectively. Solid black 96-well flat bottom plates were purchased from Costar (Corning, N.Y.). Aldosterone and angiotensin (Ang II) were purchased from Sigma (St. Louis, Mo.). D-[1,2,6,7-^3H(N)]aldosterone was acquired from PerkinElmer (Boston, Mass.). Nu-serum was a product of BD Biosciences (Franklin Lakes, N.J.).
On the following day, cells are rinsed with 100 μL of phosphate-buffered saline (PBS) and incubated with 100 μL of treatment medium containing 1 μM Ang II and a compound at different concentrations in quadruplicate wells at 37° C. for 24 h. At the end of incubation, 50 μL of medium is withdrawn from each well for measurement of aldosterone production by an SPA using mouse anti-aldosterone monoclonal antibodies.
Measurement of aldosterone activity can also be performed using a 96-well plate format. […] Anti-mouse PVT SPA beads (50 μL) are then added to each well and incubated overnight at room temperature prior to counting in a Microbeta plate counter. The amount of aldosterone in each sample is calculated by comparing with a standard curve generated using known quantities of the hormone.
as §1
The inhibition plot is calculated by fitting a 4-parameter logistic function to the raw data points using the least squares method. The equation of the 4-parameter logistic function is calculated as follows: Y=(d−a)/((1+(x/c)b))+a, where: a=minimum data level, b=gradient, I […], d=maximum data level, x=inhibitor concentration.

Structure (SMILES) | inhibition at 1 µM [1] [%] | IC50 [2] [nM]
N#Cc1ccc(-c2cncc(CN3CCCS3(=O)=O)c2)cc1Cl [2-Chloro-4-[5-(1,1-dioxo-isothiazolidin-2-ylmethyl)-pyridin-3-yl]-benzonitrile] | 64 | 12
CCS(=O)(=O)N(CC(C)C)C(c1cncc(-c2ccc(C#N)c(Cl)c2)c1)C1CC1 (centres unmarked) [Ethanesulfonic acid {[5-(3-chloro-4-cyano-phenyl)-pyridin-3-yl]-cyclopropyl-methyl}-isobutyl-amide] | 35 | 98
CCCC(NS(=O)(=O)CC)c1cncc(-c2ccc(C#N)c(Cl)c2)c1 (single isomer, unassigned) [N-(1-(5-(3-chloro-4-cyanophenyl)pyridin-3-yl)butyl)ethanesulfonamide] | 26 | 89
CCS(=O)(=O)NC(c1cncc(-c2ccc(C#N)cc2F)c1)C1CC1 (centres unmarked) [N-(5-(4-cyano-2-fluorophenyl)pyridin-3-yl)(cyclopropyl)methyl)ethanesulfonamide] | 39 | 167
CCS(=O)(=O)N(C)C(c1cncc(-c2ccc(C#N)c(Cl)c2)c1)C1CC1 (centres unmarked) [N-((5-(3-chloro-4-cyanophenyl)pyridin-3-yl)(cyclopropyl)methyl)-N-methylethanesulfonamide] | 63 | 5
CCS(=O)(=O)NC(c1cncc(-c2ccc(OC(F)(F)F)cc2)c1)C1CC1 (centres unmarked) [N-(cyclopropyl(5-(4-(trifluoromethoxy)phenyl)pyridin-3-yl)methyl)ethanesulfonamide] | 20 | 110
CCS(=O)(=O)N(CCO)C(c1cncc(-c2ccc(C#N)c(Cl)c2)c1)C1CC1 (centres unmarked) [Ethanesulfonic acid {[5-(3-chloro-4-cyano-phenyl)-pyridin-3-yl]-cyclopropyl-methyl}-(2-hydroxy-ethyl)-amide] | 51 | 20

Further compounds by falling IC50 [2], results first:

inhibition at 1 µM [1] [%] | IC50 [2] [nM] | Structure (SMILES)
40 | 85 | COc1cc(-c2cncc(CNS(C)(=O)=O)c2)ccc1C#N [N-((5-(4-cyano-3-methoxyphenyl)pyridin-3-yl)methyl)methane-sulfonamide]
34 | 45 | N#Cc1ccc(-c2cncc(NS(=O)(=O)Cc3ccccc3Cl)c2)cc1Cl [N-(5-(3-chloro-4-cyanophenyl)pyridin-3-yl)-1-(2-chlorophenyl)methanesulfonamide]
31 | 42 | CCS(=O)(=O)NC(c1cncc(-c2ccc(Cl)cc2)c1)C1CC1 (centres unmarked) [N-((5-(4-chlorophenyl)pyridin-3-yl)(cyclopropyl)methyl)-ethanesulfonamide]
38 | 33 | CCS(=O)(=O)Nc1cncc(-c2ccc(C#N)c(OC)c2)c1 [N-(5-(4-cyano-3-methoxyphenyl)pyridin-3-yl)ethanesulfonamide]
39 | 5 | CCS(=O)(=O)NC(c1cncc(-c2cccc(Cl)c2Cl)c1)C1CC1 (centres unmarked) [N-(cyclopropyl(5-(2,3-dichlorophenyl)pyridin-3-yl)methyl)ethanesulfonamide]
75 | 3 | CCS(=O)(=O)NC1CC1c1cncc(-c2cccc(Cl)c2Cl)c1 (centres unmarked) [N-(2-(5-(2,3-dichlorophenyl)pyridin-3-yl)cyclopropyl)ethane-sulfonamide]

Reference: patent US8809545B2, “Aryl pyridine as aldosterone synthase inhibitors” (Novartis AG, priority 2009, dated 2014)
